Results: patent US20260049072A1, “HETEROCYCLIC COMPOUND FOR INDUCING DEGRADATION OF MUTANT KRAS PROTEIN” (Astellas Pharma Inc., priority 2022, published 2026)
Like-named read-outs stand apart in the source and are kept apart here.

What was measured:
RAS G12D = biological target: T1, RAS G12D (Homo sapiens, UniProt P01116, G12D); assay: RAS G12D degradation activity, Cell ELISA, AsPC-1; assay type: cell-based; details: AsPC-1 cells, 24 hours; read-out: DC50 (RAS G12D 50% degradation value)
T1 construct: host or cells: AsPC-1 human pancreatic cancer cells
T1 sequence (P01116 1-188 isoform P01116-2 G12D): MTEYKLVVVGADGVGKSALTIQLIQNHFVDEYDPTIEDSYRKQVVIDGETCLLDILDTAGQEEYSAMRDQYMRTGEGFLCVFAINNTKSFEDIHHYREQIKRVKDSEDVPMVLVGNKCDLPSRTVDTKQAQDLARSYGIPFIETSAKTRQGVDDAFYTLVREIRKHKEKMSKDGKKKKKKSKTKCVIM
Method: Test Example 1-2: Evaluation of RAS G12D Degradation Activity on Human KRAS G12D Mutant-Positive Pancreatic Cancer Line AsPC-1
The RAS G12D degradation activities of subject compounds were evaluated in the same manner as in Test Example 1-1 by measuring the expression levels of RAS G12D by a Cell ELISA method.
AsPC-1 cells (ATCC, CRL-1682) were seeded at 36 μL per well on a 384-well plate to give 2.0×10^4 cells per well. As for the cell culture conditions, RPMI-1640 medium (from Sigma-Aldrich) containing 10% fetal bovine serum was used in the presence of 5% CO2 at 37° C.
The next day, the subject compounds (10 points having final concentrations in the range of 3 μM to 0.1 nM) and DMSO, which was the solvent for the subject compounds, as a negative control were diluted 100-fold with a fresh medium and were each added at 4 μL per well, followed by culturing for 24 hours.
The next day, the procedures from the immobilization of the cells to before the addition of the blocking solution were performed by the same methods as in Test Example 1-1. A blocking solution (Intercept Blocking Buffer; from LI-COR Biosciences) was added at 20 μL per well. After allowing the plate to stand for 30 minutes at room temperature, the supernatant was removed by centrifugation. A solution obtained by diluting an anti-R-actin antibody (1,000-fold dilution) with the blocking solution was added to the wells of the positive control as a primary antibody, and a solution obtained by diluting an anti-Ras (G12D Mutant Specific) antibody (Ras (G12D Mutant Specific) (D8H7) Rabbit mAb; from Cell Signaling Technology; 1,000-fold dilution) and an anti-3-actin antibody (1,000-fold dilution) with the blocking solution was added to the other wells as primary antibodies, each at 15 μL per well. The plate was allowed to stand overnight at 4° C.
The next day, the supernatant was removed by centrifugation, and the plate was washed with PBS. The supernatant was removed by centrifugation, and a solution obtained by diluting an anti-rabbit IgG antibody and an anti-mouse IgG antibody 1,000-fold with the blocking solution was added at 15 μL per well as secondary antibodies. After allowing the plate to stand at room temperature for an hour, the supernatant was removed by centrifugation, and the plate was washed with PBS. After removing the supernatant, the plate was dried as it was with air at room temperature for two hours or more, and the 700-nm and 800-nm fluorescent signals were measured with Aerius.
With the RAS G12D signaling value at the time of addition of DMSO corrected with the signaling value of β-actin taken as 0% and with the RAS G12D signaling value under the conditions of staining with the anti-β-actin antibody alone taken as 100%, the RAS G12D degradation rates were calculated. The 50% degradation values (DC50) were calculated by Sigmoid-Emax model nonlinear regression analysis.

[1] = system: phosphorylation of ERK (Thr202/Tyr204); assay: ERK phosphorylation inhibitory activity, cell ELISA, PA-TU-8902; assay type: cell-based; details: Homo sapiens, read-out: IC50 (ERK phosphorylation inhibition)
Method: Test Example 2: Evaluation of ERK Phosphorylation Inhibitory Activity on Human KRAS G12V Mutant-Positive Pancreatic Cancer Line PA-TU-8902
The ERK phosphorylation inhibitory activities of subject compounds were evaluated by measuring phosphorylation of the 202th threonine (Thr202) and the 204th tyrosine (Tyr204) of ERK located downstream of the KRAS signal by cell ELISA.
PA-TU-8902 cells were seeded at 36 µL/well on a 384-well plate (from Greiner bio-one) to give 5.0×10^3 cells per well. The cell culture conditions were the same conditions as in Test Example 1-1.
The next day, the subject compounds (9 points having final concentrations in the range of 3 μM to 0.3 nM), trametinib (MEK inhibitor) of a final concentration of 300 nM as a positive control and DMSO, which was the solvent for the subject compounds, as a negative control were diluted 100-fold with a fresh medium and were each added at 4 μL per well, followed by culturing for 24 hours. After culturing, a 30% glyoxal solution (40% glyoxal [from Nacalai Tesque] was diluted with PBS) was quickly added at 30 μL per well, and the plate was allowed to stand for an hour and 30 minutes at room temperature to thus immobilize the cells. Then, the plate was centrifuged (110×g, seven seconds, hereinafter centrifugation was performed under the same conditions unless otherwise specified) to remove the supernatant, and 0.1% Triton X-100-containing PBS was added at 20 μL per well. After allowing the plate to stand for 10 minutes at room temperature, the supernatant was removed by centrifugation, and the same operation was further repeated. Next, 0.5% SDS-containing PBS was added at 20 μL per well. The plate was allowed to stand at room temperature for 30 minutes and was then centrifuged to remove the supernatant. Subsequently, a blocking solution (Intercept Blocking Buffer) was added at 20 μL per well, and the plate was allowed to stand for an hour at room temperature. The supernatant was removed by centrifugation, and an ERK (Thr202/Tyr204) phosphorylation antibody (Phospho-p44/42 MAPK (Erk 1/2) (Thr202/Tyr204) (D13.14.4E) XP Rabbit mAb; from Cell Signaling Technology) diluted 2,500-fold with the blocking solution was added at 15 μL per well as a primary antibody. The plate was allowed to stand at 4° C. overnight.
The next day, the plate was centrifuged to remove the supernatant, and 0.05% Tween-20-containing PBS (from Thermo Scientific; 20×PBS Tween-20 was diluted 20-fold with ion exchange water and used) was added at 50 μL per well. The supernatant was removed by centrifugation to thus wash each well. The washing was performed three times in total. After washing, an anti-rabbit IgG antibody diluted 1,000-fold with the blocking solution was added at 15 μL per well as a secondary antibody, and the plate was allowed to stand for an hour at room temperature. The plate was centrifuged to remove the supernatant, and each well was washed three times with 0.05% Tween-20-containing PBS in the same manner as after the primary antibody reaction. Centrifugation after the third washing was performed at 171×g for 17 seconds. After removing the supernatant, the plate was dried as it was with air at room temperature for three hours or more, and the 800-nm fluorescent signals were measured with Aerius.
With the signaling value at the time of addition of DMSO taken as 0% inhibition and with the signaling value at the time of addition of 300 nM trametinib taken as 100% inhibition, the 50% inhibition values (IC50) were calculated by Sigmoid-Emax model nonlinear regression analysis.

[2] = PaTu 8902, PA-TU-8902 cells, 24 hours, 100% = 300 nM trametinib

Row | Compound | DC50 (RAS G12D) [nM] | IC50 [1, 2] [nM] | IC50 ([1]; PaTu 8902, 24 h) [nM]
1 | CO[C@@H](C)COc1cc(OC2CN(C(=O)NCCN(C)C)C2)c2cc(C3CC3)c(-c3c(C)c(F)cc4[nH]ncc34)c(OCc3ccc(-c4cn([C@H](C(=O)N5C[C@H](O)C[C@H]5C(=O)N[C@@H](CO)c5ccc(-n6cncn6)cc5)C(C)C)nn4)cc3)c2n1 (atropisomer, axis not shown; (M)) [Example 12, (4R)-1-[(2S)-2-(4-{4-[({(7M)-6-cyclopropyl-4-[(1-{[2-(dimethylamino)ethyl]carbamoyl}azetidin-3-yl)oxy]-7-(6-fluoro-5-methyl-1H-indazol-4-yl)-2-[(2S)-2-methoxypropoxy]quinolin-8-yl}oxy)methyl]phenyl}-1H-1,2,3-triazol-1-yl)-3-methylbutanoyl]-4-hydroxy-N-{(1R)-2-hydroxy-1-[4-(1H-1,2,4-triazol-1-yl)phenyl]ethyl}-L-prolinamide] | 3 | 18 | 
2 | CO[C@@H](C)COc1cc(OC2CN(C(=O)C3CN(C)C3)C2)c2cc(C3CC3)c(-c3c(C)c(F)cc4[nH]ncc34)c(OCc3ccc(-c4cn([C@H](C(=O)N5C[C@H](O)C[C@H]5C(=O)N[C@@H](CO)c5ccc(-n6cncn6)cc5)C(C)C)nn4)cc3)c2n1 (atropisomer, axis not shown) [Example 42] | 6 |  | 14
3 | Cc1ncsc1-c1ccc([C@H](CO)NC(=O)[C@@H]2C[C@@H](O)CN2C(=O)[C@H](C(C)C)n2cc(-c3ccc(COc4c(-c5c(C)c(F)cc6[nH]ncc56)c(C5CC5)cc5c(NC6CN(c7ncccn7)C6)nc(OC6CCOCC6)nc45)cc3)nn2)cc1 [Example 15, (4R)-1-[(2S)-2-{4-[4-({[(7M)-6-cyclopropyl-7-(6-fluoro-5-methyl-1H-indazol-4-yl)-2-[(oxan-4-yl)oxy]-4-{[1-(pyrimidin-2-yl)azetidin-3-yl]amino}quinazolin-8-yl]oxy}methyl)phenyl]-1H-1,2,3-triazol-1-yl}-3-methylbutanoyl]-4-hydroxy-N-{(1R)-2-hydroxy-1-[4-(4-methyl-1,3-thiazol-5-yl)phenyl]ethyl}-L-prolinamide] | 146 | 42 | 
4 | Cc1ncsc1-c1ccc([C@H](CO)NC(=O)[C@@H]2C[C@@H](O)CN2C(=O)[C@H](C(C)C)n2cc(-c3ccc(COc4c(-c5c(C)c(F)cc6[nH]ncc56)c(C5CC5)cc5c(NCc6cccnc6)nc(OC6CCOCC6)nc45)cc3)nn2)cc1 [Example 29] | 21 | 15 | 
5 | CO[C@@H](C)COc1nc(NC2CN(C(=O)O[C@H]3C[C@@H](N(C)C)C3)C2)c2cc(C3CC3)c(-c3c(C)c(F)cc4[nH]ncc34)c(OCc3ccc(-c4cn([C@H](C(=O)N5C[C@H](O)C[C@H]5C(=O)N[C@@H](CO)c5ccc(N6CCOC6=O)cc5)C(C)C)nn4)cc3)c2n1 (atropisomer, axis not shown) [Example 4] | 20 | 48 | 
6 | CO[C@@H](C)COc1nc(N2CCOCC2)c2cc(C3CC3)c(-c3c(C)c(F)cc4[nH]ncc34)c(OCc3ccc(-c4cn([C@H](C(=O)N5C[C@H](O)C[C@H]5C(=O)N[C@@H](CO)c5ccc(-c6scnc6C)cc5)C(C)C)nn4)cc3)c2n1 (atropisomer, axis not shown) [Example 21] | 8 | 19 | 
7 | CO[C@@H](C)COc1cc(OC2CN(C(=O)O[C@H]3C[C@@H](N(C)C)C3)C2)c2cc(C3CC3)c(-c3c(C)c(F)cc4[nH]ncc34)c(OCc3ccc(-c4cn([C@H](C(=O)N5C[C@H](O)C[C@H]5C(=O)N[C@@H](CO)c5ccc(-n6cncn6)cc5)C(C)C)nn4)cc3)c2n1 (atropisomer, axis not shown; (M)) [Example 13, (1s,3R)-3-(dimethylamino)cyclobutyl 3-({(7M)-6-cyclopropyl-7-(6-fluoro-5-methyl-1H-indazol-4-yl)-8-{[4-(1-{(2S)-1-[(2S,4R)-4-hydroxy-2-({(1R)-2-hydroxy-1-[4-(1H-1,2,4-triazol-1-yl)phenyl]ethyl}carbamoyl)pyrrolidin-1-yl]-3-methyl-1-oxobutan-2-yl}-1H-1,2,3-triazol-4-yl)phenyl]methoxy}-2-[(2S)-2-methoxypropoxy]quinolin-4-yl}oxy)azetidine-1-carboxylate] | 6 | 9 | 
